Laboratory results from US20110070597A1, “Thin-Film Passive Samplers for Detection of Hydrophobic Organic Contaminants and Estrogenicity in Various Environments” (UNIVERSITY OF CONNECTICUT, priority 2009, published 2011).

Type: physicochemical
Description: The polymer coated glass samplers (POG) and the organic rapid equilibrating (ORE) samplers, 10 and 20, both consisting of a thin film (on the order of ˜1-2 μm) of EVA, were calibrated by experimental determination of EVA-Water partition coefficients and sampling rates. The ORE is comprised of a 1.4 μm EVA coating on a 5.1×7.6 cm titanium plate, while the POG utilizes a thin-film of EVA on a glass fiber filter.
A closed system experiment was used to calibrate the POG and ORE devices. Sampling rates and equilibration times were determined for fourteen PBDE congeners. EVA-Water partitioning coefficients (KEVA-W) were experimentally determined for 5 BDE congeners. A Log KEVA-W−Log KOW (Octanol-Water partitioning coefficient) plot was constructed and used to define Log KEVA-W partitioning coefficients for the 14 BDE congeners examined. Values ranged from 6.39 to 10.6. The experimental design was successful in parameterizing the desired constants. In sum, both samplers were successfully calibrated.
A dichloromethane rinsed 20 gallon fish tank was employed for the tank deployment experimental. Three POGs and three OREs were suspended from a stainless steel frame proximate the top of the tank.
Once dry, the tank was filled with artificial seawater comprising sodium chloride, sodium bicarbonate, magnesium sulfate, and high purity Milli-Q water. A handheld multiparameter instrument (YSI-556) was used to confirm salinity (31 parts per thousand), dissolved oxygen (0.19 mM), and temperature (20° C.) prior to starting the experiment. The tank was fit with a plexiglass lid sealed with polytetrafluoroethylene (PTFE; i.e., Teflon®) and duct tape.
The tank was spiked with 0.2 mL of the PBDE Predominant Congener Mixture in n-nonane from Cambridge Isotope laboratories and allowed to equilibrate for 48 hours. Samplers were removed from refrigeration and allowed to equilibrate to room temperature. 400 mL of water was taken to establish the initial concentration. Seven sets of three samplers were added to the tank. The tank was secured with a lid, PTFE and duct tape, as described above. Four hundred milliliter aliquots of tank water and one sampler set were removed at the following time intervals: 1 hr, 2 hrs, 6 hrs, 12 hrs, 3 days, 12 days, and 32 days. The tank was open to the air in the fume hood for less than 4 minutes during each sampling period. After removal, each sampler set was wrapped in pre-cleaned aluminum foil and placed frozen in an airtight bag at −20° C. until extraction and analysis. Water-side 400 mL aliquots were frozen at −20° C. until extraction and analysis.
The POGs and OREs were extracted for analysis of PBDE concentration.
Extracts were analyzed for BDE congeners 17, 28, 47, 66, 71, 85, 99, 100, 138, 153, 154, 183, 190, and 209 by gas chromatography-mass spectrometry (GC/MS). Masses 79 (PBDEs) and 414 (Mirex) were used for quantification with Masses 81 (PBDEs), 487, 486 (DecaBDE), and 412 (Mirex) acting as confirmation ions. Extracts were identified and quantified by comparison with known concentrations of prepared standard solutions.
Sampling rates were calculated experimentally using Equation 2. The sampling rates varied between sampler types. The differences in sampling rates were likely due to variations in the thickness and heterogeneity versus homogeneity of the thin film coating on the respective plates. Sampling rates (RS(s)) were calculated at 1, 2, or 6 hrs depending upon the shape of the uptake curve.

Structure (SMILES)	LOG KEVA-W (EVA-water partition coefficient) ORE	LOG KEVA-W (EVA-water partition coefficient) POG
Brc1ccc(Oc2ccc(Br)c(Br)c2)c(Br)c1 [BDE 66]	6.66 ± 0.11	6.25 ± 0.07
Brc1ccc(Oc2ccc(Br)cc2Br)c(Br)c1 [BDE 47]	6.79 ± 0.10	6.43 ± 0.07
Brc1ccc(Oc2c(Br)cccc2Br)cc1Br [BDE 71]	6.67 ± 0.02	6.24 ± 0.05
Brc1ccc(Oc2ccc(Br)cc2Br)cc1 [BDE 28]	6.38 ± 0.10	5.90 ± 0.06
Brc1ccc(Oc2ccccc2Br)c(Br)c1 [BDE 17]	6.40 ± 0.08	6.01 ± 0.07
